Data set [1] deals with HIV-IIIb. In words: Test A: Antiviral Assay in MT4 Cells. In kind it is cell-based, HIV-1. Particulars: for inhibition at 0.2 µM: 0.2 μM drug concentration. In short, it runs like this:
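Readout was CellTiter-Glo luminescence after 10 min room-temperature lysis, taken 5 days after plating at 37 °C. The 2000 MT-4 cells per well, mixed 1 h beforehand with HIV-IIIb (m.o.i. 0.003), went straight onto the diluted compound.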

Data set [2] in a line: Test B: Cytotoxicity Assay. The following applies: human, uninfected MT-4 cells, CellTiter-Glo. The format is cell-based. The protocol: Test B: Cytotoxicity Assay Compound cytotoxicity and the corresponding CC50 values was determined using the same protocol as described in the antiviral assay (Test A) except that uninfected cells were used.
In general terms: ATP-based viability assays read luminescence as a measure of living cells.

[3] abbreviates: Human immunodeficiency virus 1, MT4, 120 h, MT-4 cells infected with HIV-IIIb, 5 days, values normalized to 100%, average over time, read-out: % inhibition at 0.2 μM (percent inhibition of virus-induced cell killing).

Like-named read-outs stand apart in the source and are kept apart here.

On to `Cn1nc(NS(C)(=O)=O)c2c(Cl)ccc(-c3ccc(C#CC4(O)CC(F)(F)C4)nc3[C@H](Cc3cc(F)cc(F)c3)NC(=O)Cn3nc(C(F)(F)F)c4c3C(F)(F)[C@@H]3C[C@H]43)c21` [Compound 103, N—((S)-1-(3-(4-chloro-1-methyl-3-(methylsulfonamido)-1H-indazol-7-yl)-6-((3,3-difluoro-1-hydroxycyclobutyl)ethynyl)pyridin-2-yl)-2-(3,5-difluorophenyl)ethyl)-2-((3bS,4aR)-5,5-difluoro-3-(trifluoromethyl)-3b,4,4a,5-tetrahydro-1H-cyclopropa[3,4]cyclopenta[1,2-c]pyrazol-1-yl)acetamide], for which the inhibition (in general, the change of the read-out against control, counted positive when it falls) at 0.2 µM in data set [1] (setting [3]) was 100%. For the same molecule, the CC50 (as a rule, the concentration at which the toxic effect on the cells reaches its halfway point) at 5 days in data set [2] was found to be 9.21 µM.

For `Cn1nc(NS(C)(=O)=O)c2c(Cl)ccc(-c3ccc(C#CC4(O)CC(F)(F)C4)nc3[C@H](Cc3cc(F)cc(F)c3)NC(=O)Cn3nc(C(F)F)c4c3C(F)(F)CCC4(F)F)c21` [Compound 104, (S)—N-(1-(3-(4-chloro-1-methyl-3-(methylsulfonamido)-1H-indazol-7-yl)-6-((3,3-difluoro-1-hydroxycyclobutyl)ethynyl)pyridin-2-yl)-2-(3,5-difluorophenyl)ethyl)-2-(3-(difluoromethyl)-4,4,7,7-tetrafluoro-4,5,6,7-tetrahydro-1H-indazol-1-yl)acetamide], the inhibition at 0.2 µM in data set [1] (setting [3]) was 100%. The same molecule displayed a CC50 at 5 days in data set [2] of 8.42 µM.

Regarding `Cn1nc(NS(C)(=O)=O)c2cccc(-c3ccc(C#CC4(O)CC(F)(F)C4)nc3[C@H](Cc3cc(F)cc(F)c3)NC(=O)Cn3nc(C(F)(F)F)c4c3C(F)(F)[C@@H]3C[C@H]43)c21` [Compound 105D], in data set [1] (setting [3]), the inhibition at 0.2 µM stood at 88%. For the same molecule, half-maximal cytotoxicity in data set [2] (CC50 at 5 days) was put at 6.46 µM.

With `NC(=O)c1cc(-c2ccc(C#CC3(O)CC(F)(F)C3)nc2[C@H](Cc2cc(F)cc(F)c2)NC(=O)Cn2nc(C(F)F)c3c2C(F)(F)[C@@H]2C[C@H]32)ccc1F` [Compound 106C, 5-(6-((3,3-difluoro-1-hydroxycyclobutyl)ethynyl)-2-((S)-1-(2-((3bS,4aR)-3-(difluoromethyl)-5,5-difluoro-3b,4,4a,5-tetrahydro-1H-cyclopropa[3,4]cyclopenta[1,2-c]pyrazol-1-yl)acetamido)-2-(3,5-difluorophenyl)ethyl)pyridin-3-yl)-2-fluorobenzamide], in data set [1] (setting [3]), the inhibition at 0.2 µM amounted to 100%. The molecule further had a 50% cytotoxic concentration (CC50) at 5 days in data set [2] of 2.85 µM.

Consider `NC(=O)c1cc(-c2ccc(C#CC3(O)CC(F)(F)C3)nc2[C@H](Cc2cc(F)cc(F)c2)NC(=O)Cn2nc(C(F)(F)F)c3c2C(F)(F)[C@@H]2C[C@H]32)ccc1F` [Compound 107, 5-(6-((3,3-difluoro-1-hydroxycyclobutyl)ethynyl)-2-((S)-1-(2-((3bS,4aR)-5,5-difluoro-3-(trifluoromethyl)-3b,4,4a,5-tetrahydro-1H-cyclopropa[3,4]cyclopenta[1,2-c]pyrazol-1-yl)acetamido)-2-(3,5-difluorophenyl)ethyl)pyridin-3-yl)-2-fluorobenzamide], for which the inhibition at 0.2 µM in data set [1] (Human immunodeficiency virus 1, IIIB, MT4, comparison with previously published compounds, read-out: Response at 0.2 μM (percent inhibition of virus-induced cell killing)) came to 99%; in data set [1] (setting [3]), 99%. Moreover, the inhibition at 2 µM in data set [1] (Human immunodeficiency virus 1, IIIB, MT4, 2 μM drug concentration, comparison with previously published compounds, read-out: Response at 2 μM (percent inhibition of virus-induced cell killing)) came out at 99%. Besides, in data set [2], the CC50 at 5 days stood at 3.64 µM.

On to `Cn1nc(O)c2c(Cl)ccc(-c3ccc(C#CC4(O)CCOCC4)nc3[C@H](Cc3cc(F)cc(F)c3)NC(=O)Cn3nc(C(F)F)c4c3C(F)(F)[C@@H]3C[C@H]43)c21` [Compound 109E, N—((S)-1-(3-(4-chloro-3-hydroxy-1-methyl-1H-indazol-7-yl)-6-((4-hydroxytetrahydro-2H-pyran-4-yl)ethynyl)pyridin-2-yl)-2-(3,5-difluorophenyl)ethyl)-2-((3bS,4aR)-3-(difluoromethyl)-5,5-difluoro-3b,4,4a,5-tetrahydro-1H-cyclopropa[3,4]cyclopenta[1,2-c]pyrazol-1-yl)acetamide], for which the inhibition at 0.2 µM in data set [1] (setting [3]) is 100%. In data set [2], this molecule displayed a CC50 at 5 days of 22.3 µM.

Source of the values: patent US9873680B2 (Gilead Sciences, Inc., priority 2014, dated 2018).
